Experimental findings from patent publication US20060009448A1, “Metabolites of 4-(3,4-dichloro-phenyl)-2-[2-(4-methyl-piperazin-1-yl)-benzylidene]thiomorpholin-3-one” (Pfizer Inc., priority 2004, published 2006) are described below.

A short description of this data set: Percentages of plasma metabolites in human after oral administration of [14C]-Formula I (HPLC radioprofiling of pooled plasma). Format: in vivo. As to the method: Six healthy male human subjects were administered a single 10 mg (free base) oral dose of 4-(3,4-dichloro-phenyl)-2-[2-(4-methyl-piperazin-1-yl)-benzylidene]-thiomorpholin-3-one containing 100 μCi of [^14C]-4-(3,4-dichloro-phenyl)-2-[2-(4-methyl-piperazin-1-yl)-benzylidene]-thiomorpholin-3-one (Lot# 49,800-103-1, specific activity 15.66 mCi/mmol, radiochemical purity >99%). [drawing 9]
a). Blood sufficient to provide approximately 10 mL plasma for 4-(3,4-dichloro-phenyl)-2-[2-(4-methyl-piperazin-1-yl)-benzylidene]-thiomorpholin-3-one metabolite identification was collected in heparinized tubes at the following approximate times: 2, 8, 24, 48, 96, and 192 hours after drug administration. Samples were centrifuged at approximately 4° C. and the plasma was stored in appropriately labeled, screw-capped opaque polypropylene tubes at −20° C. until analysis.
Plasma samples were pooled by human subject separately according to the method published by Raid, et al. (Raid, et al: Pharm. Res. (1991), 8(4), 541-543). Aliquots (1 mL) from each pool were extracted with 5 mL of acetonitrile. The mixtures were vortex-mixed for 3 minutes, sonicated for 30 minutes and then centrifuged for 7 minutes at 20° C. Aliquotes of the supernatant (2×500 μL) were counted to determine recovery. Approximately 95.1% of the radioactivity was recovered in the supernatants. The supernatants were combined according to subject number to two equal sets and dried in the Turbovap at room temperature. One set of the dried residue (six subjects) was reconstituted in 150 μL of 10 mM ammonium acetate (pH 4.0)/methanol/dimethyl sulfoxide (1.5:1.5:1) and aliquots of 100 μL were injected onto HPLC-Arc system for profiling. The other set of dried residues were combined and reconstituted in 300 μL of 10 mM ammonium acetate (pH 4.0)/methanol/dimethyl sulfoxide (1.5:1.5:1) and 90 μL was injected onto HPLC-MS/MS system for metabolite identification.

Turning to `CN1CCn2c(c(C3SCCN(c4ccc(Cl)c(Cl)c4)C3=O)c3ccccc32)C1` (stereo not shown) [Metabolite M10A], for the setting “human Subject#1, single 10 mg oral dose of [14C]-parent compound”, the “% of Total Radioactivity in Plasma, Subject#1” value is on record as 60.6%. Further, the “% of Total Radioactivity in Plasma, Subject#2” value (human Subject#2, single 10 mg oral dose of [14C]-parent compound) came to 57.6%. The “% of Total Radioactivity in Plasma, Subject#3” value (human Subject#3, single 10 mg oral dose of [14C]-parent compound) is reported as 62.8%. Besides, the “% of Total Radioactivity in Plasma, Subject#4” value (human Subject#4, single 10 mg oral dose of [14C]-parent compound) amounted to 72.2%. Moreover, the “% of Total Radioactivity in Plasma, Subject#5” value (human Subject#5, single 10 mg oral dose of [14C]-parent compound) was determined as 69.6%. Also, the “% of Total Radioactivity in Plasma, Subject#6” value (human Subject#6, single 10 mg oral dose of [14C]-parent compound) amounted to 68.3%. Further, for the setting “mean of six human subjects, single 10 mg oral dose of [14C]-parent compound”, the “% of Total Radioactivity in Plasma, Mean” value was found to be 65.2%.
